Measured values as given in PubChem BioAssay (NCI).
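In this assay, cells in 96-well plates receive the compound at five concentrations for 48 hours. Endpoints are linearly interpolated between the surrounding concentrations. The concentration for 50% growth inhibition is given as GI50. At the TGI there is no net growth.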

Assays:
Experiment in all cases: NCI anticancer screen, dose series, 48 h
HOP-92 NSCLC = tested on: HOP-92 NSCLC
SK-OV-3 ovarian = tested on: SK-OV-3 ovarian
MDA-MB-231 breast = tested on: MDA-MB-231 breast
SK-MEL-2 melanoma = tested on: SK-MEL-2 melanoma
PC-3 prostate = tested on: PC-3 prostate
NCI/ADR-RES ovarian = tested on: NCI/ADR-RES ovarian
HCT-15 colon = tested on: HCT-15 colon
BT-549 breast = tested on: BT-549 breast
U251 CNS = tested on: U251 CNS
SK-MEL-28 melanoma = tested on: SK-MEL-28 melanoma
HCT-116 colon = tested on: HCT-116 colon
EKVX NSCLC = tested on: EKVX NSCLC
DU-145 prostate = tested on: DU-145 prostate
ACHN renal = tested on: ACHN renal
KM12 colon = tested on: KM12 colon
OVCAR-3 ovarian = tested on: OVCAR-3 ovarian
IGROV1 ovarian = tested on: IGROV1 ovarian
SR leukemia = tested on: SR leukemia
HCC-2998 colon = tested on: HCC-2998 colon
UACC-62 melanoma = tested on: UACC-62 melanoma
CAKI-1 renal = tested on: CAKI-1 renal
UO-31 renal = tested on: UO-31 renal
OVCAR-5 ovarian = tested on: OVCAR-5 ovarian
K-562 leukemia = tested on: K-562 leukemia
SN12C renal = tested on: SN12C renal
OVCAR-4 ovarian = tested on: OVCAR-4 ovarian
A498 renal = tested on: A498 renal
786-0 renal = tested on: 786-0 renal
UACC-257 melanoma = tested on: UACC-257 melanoma
RXF 393 renal = tested on: RXF 393 renal
A549 NSCLC = tested on: A549 NSCLC
SNB-75 CNS = tested on: SNB-75 CNS
NCI-H460 lung = tested on: NCI-H460 lung
TK-10 renal = tested on: TK-10 renal
NCI-H226 lung = tested on: NCI-H226 lung
MALME-3M melanoma = tested on: MALME-3M melanoma
MOLT-4 leukemia = tested on: MOLT-4 leukemia
SK-MEL-5 melanoma = tested on: SK-MEL-5 melanoma
M14 melanoma = tested on: M14 melanoma
HOP-62 NSCLC = tested on: HOP-62 NSCLC
SW-620 colon = tested on: SW-620 colon
HL-60(TB) leukemia = tested on: HL-60(TB) leukemia
SF-295 CNS = tested on: SF-295 CNS
T-47D breast = tested on: T-47D breast
NCI-H522 lung = tested on: NCI-H522 lung
MCF7 breast = tested on: MCF7 breast
SF-268 CNS = tested on: SF-268 CNS
OVCAR-8 ovarian = tested on: OVCAR-8 ovarian
LOX IMVI melanoma = tested on: LOX IMVI melanoma
MDA-MB-435 = tested on: MDA-MB-435
CCRF-CEM leukemia = tested on: CCRF-CEM leukemia
HS 578T breast = tested on: HS 578T breast
SNB-19 CNS = tested on: SNB-19 CNS
HT29 colon = tested on: HT29 colon
SF-539 CNS = tested on: SF-539 CNS

Question: Which results are given for `[Cl][Ru].c1ccc(-c2cccc(-c3ccccn3)n2)nc1.c1ccc(-c2ccnc3c2ccc2c(-c4ccccc4)ccnc23)cc1`?
Answer: GI50 (HOP-92 NSCLC): 1.09 µM; TGI (HOP-92 NSCLC): 3.64 µM; GI50 (SK-OV-3 ovarian): 2.3 µM; TGI (SK-OV-3 ovarian): 7 µM; GI50 (MDA-MB-231 breast): 3 µM; TGI (MDA-MB-231 breast): 12.5 µM; GI50 (SK-MEL-2 melanoma): 1.96 µM; TGI (SK-MEL-2 melanoma): 5.13 µM; GI50 (PC-3 prostate): 2.63 µM; TGI (PC-3 prostate): 10.6 µM; GI50 (NCI/ADR-RES ovarian): 10 µM; TGI (NCI/ADR-RES ovarian): > 100 µM; GI50 (HCT-15 colon): 22.4 µM; TGI (HCT-15 colon): > 100 µM; GI50 (BT-549 breast): 2.26 µM; TGI (BT-549 breast): 6.46 µM; GI50 (U251 CNS): 2.69 µM; TGI (U251 CNS): > 100 µM; GI50 (SK-MEL-28 melanoma): 3.01 µM; TGI (SK-MEL-28 melanoma): 18 µM; GI50 (HCT-116 colon): 3.16 µM; TGI (HCT-116 colon): > 100 µM; GI50 (EKVX NSCLC): 3.22 µM; TGI (EKVX NSCLC): 23.3 µM; GI50 (DU-145 prostate): 4.84 µM; TGI (DU-145 prostate): > 100 µM; GI50 (ACHN renal): 21.2 µM; TGI (ACHN renal): > 100 µM; GI50 (KM12 colon): 3.04 µM; TGI (KM12 colon): > 100 µM; GI50 (OVCAR-3 ovarian): 3.36 µM; TGI (OVCAR-3 ovarian): > 100 µM; GI50 (IGROV1 ovarian): 2.93 µM; TGI (IGROV1 ovarian): 20.7 µM; GI50 (SR leukemia): 2.65 µM; TGI (SR leukemia): 17.9 µM; TGI (HCC-2998 colon): 20.1 µM; GI50 (UACC-62 melanoma): 1.97 µM; TGI (UACC-62 melanoma): 5.53 µM; GI50 (CAKI-1 renal): 13.8 µM; TGI (CAKI-1 renal): 36.6 µM; GI50 (UO-31 renal): 6.31 µM; TGI (UO-31 renal): > 100 µM; GI50 (OVCAR-5 ovarian): 4.01 µM; TGI (OVCAR-5 ovarian): 19.5 µM; GI50 (K-562 leukemia): 1.67 µM; TGI (K-562 leukemia): > 100 µM; GI50 (SN12C renal): 2.87 µM; TGI (SN12C renal): 10.8 µM; GI50 (OVCAR-4 ovarian): 3.13 µM; TGI (OVCAR-4 ovarian): 26.7 µM; GI50 (A498 renal): 15.1 µM; TGI (A498 renal): 46.6 µM; GI50 (786-0 renal): 13.2 µM; TGI (786-0 renal): 62.7 µM; GI50 (UACC-257 melanoma): 2.7 µM; TGI (UACC-257 melanoma): 14.2 µM; GI50 (RXF 393 renal): 3.43 µM; TGI (RXF 393 renal): 19 µM; GI50 (A549 NSCLC): 4.06 µM; TGI (A549 NSCLC): 75.4 µM; GI50 (SNB-75 CNS): 2.37 µM; TGI (SNB-75 CNS): 9.73 µM; GI50 (NCI-H460 lung): 3.75 µM; TGI (NCI-H460 lung): > 100 µM; GI50 (TK-10 renal): 11.8 µM; TGI (TK-10 renal): 37.3 µM; GI50 (NCI-H226 lung): 4.66 µM; TGI (NCI-H226 lung): 25.7 µM; GI50 (MALME-3M melanoma): 2.42 µM; TGI (MALME-3M melanoma): 7.52 µM; GI50 (MOLT-4 leukemia): 3.51 µM; TGI (MOLT-4 leukemia): 24.5 µM; GI50 (SK-MEL-5 melanoma): 6.55 µM; TGI (SK-MEL-5 melanoma): 44.4 µM; GI50 (M14 melanoma): 4.82 µM; TGI (M14 melanoma): 34.3 µM; GI50 (HOP-62 NSCLC): 4.11 µM; TGI (HOP-62 NSCLC): 27.9 µM; GI50 (SW-620 colon): 4.14 µM; TGI (SW-620 colon): 80.5 µM; GI50 (HL-60(TB) leukemia): 1.62 µM; TGI (HL-60(TB) leukemia): 4.03 µM; GI50 (SF-295 CNS): 13.8 µM; TGI (SF-295 CNS): 56.7 µM; GI50 (T-47D breast): 2.32 µM; TGI (T-47D breast): 8.35 µM; GI50 (NCI-H522 lung): 2.12 µM; TGI (NCI-H522 lung): 6.75 µM; GI50 (MCF7 breast): 2.41 µM; TGI (MCF7 breast): 13.4 µM; GI50 (SF-268 CNS): 4.17 µM; TGI (SF-268 CNS): > 100 µM; GI50 (OVCAR-8 ovarian): 5.35 µM; TGI (OVCAR-8 ovarian): 59 µM; GI50 (LOX IMVI melanoma): 3.04 µM; TGI (LOX IMVI melanoma): > 100 µM; GI50 (MDA-MB-435): 2.77 µM; TGI (MDA-MB-435): 11 µM; GI50 (CCRF-CEM leukemia): 4.5 µM; TGI (CCRF-CEM leukemia): > 100 µM; GI50 (HS 578T breast): 2.6 µM; TGI (HS 578T breast): 8.63 µM; GI50 (SNB-19 CNS): 3.33 µM; TGI (SNB-19 CNS): 21.7 µM; GI50 (HT29 colon): 3.08 µM; TGI (HT29 colon): 12 µM; GI50 (SF-539 CNS): 2.93 µM; TGI (SF-539 CNS): 19.9 µM
